Literature values, collected in patent publication US7368458B2, “Bicyclic heterocycles as cannabinoid receptor modulators” (Bristol-Myers Squibb Company, priority 2005, dated 2008).
Read-outs that look alike come from different tables or passages of the source.

How the values were obtained:
[1] = chronic administration for two weeks
[2] = human subjects, 16 week trial period

SMILES	body weight [1]	body weight [2]
Cc1c(C(=O)NN2CCCCC2)nn(-c2ccc(Cl)cc2Cl)c1-c1ccc(I)cc1 [AM-251]	substantial body weight reduction	–
Cc1c(C(=O)NN2CCCCC2)nn(-c2ccc(Cl)cc2Cl)c1-c1ccc(Cl)cc1 [SR-141716]	–	dose-dependently reduced body weight
